Marks after values point to notes of the source that are not given here.
Key:
ASPC-1 cells = assay: Effect of Pter on ASPC-1 cell growth or viability in vitro; format: cell-based, human; details: 15 μM Pter×60 min every 24 h
Experimental: (§1) FIG. 11. In vivo effect of Pter on human pancreatic cancer growth. […] For the doses of 20 and 40 mg Pter/kg only the point at the end of the treatment period is shown.
(§2) Human A2058, MeWo and MelJuso melanoma cells, and mouse AtT-20 pituitary corticotroph tumor cells were from the American Type Culture Collection (ATCC). Human HEMa-LP epidermal melanocytes were from Life Technologies (Grand Island, N.Y.). Human MDA-MB-231 (triple negative: ER−, PR−, HER2−) and MCF-7 (ER+, PR+, HER2−) breast adenocarcinoma, A549 lung adenocarcinoma (NSCLC), HepG2 hepatocellular carcinoma, LNCaP (AR+) and PC-3 (AR−) prostate adenocarcinoma, SK-OV-3 epithelial ovarian carcinoma, and HT-29 and Caco-2 colorectal carcinoma cells were from the American Type Culture Collection. Cells were grown in Dulbecco's modified Eagle's medium (DMEM) (Invitrogen, San Diego, Calif.), pH 7.4, supplemented with 10% heat-inactivated FCS (Biochrom KG, Berlin, Germany), 100 units/ml penicillin and 100 μg/ml streptomycin. Cells were plated, at a density of 20,000 cells/cm2, and cultured at 37° C. in a humidified atmosphere with 5% CO2. […] Cell numbers were determined using a Coulter Counter (Coulter Electronic Inc., Miami, Fla.). […] Cellular viability was assessed as previously reported (Mena, S. et al. Clin Cancer Res 13, 2658-2666 (2007)), by measuring trypan blue exclusion and leakage of lactate dehydrogenase activity.

MeWo melanoma = assay: In vivo growth of MeWo melanoma xenografts in nu/nu mice; parameters: species or system human
BxPC-3 cells = assay: Effect of Pter on BxPC-3 cell growth or viability in vitro; format: cell-based, human; details: 15 μM Pter×60 min every 24 h
Experimental: as §1, §2

[1] = tested on: human breast, lung, liver, prostate, ovarian, and colorectal cancer cell lines; assay: Effect of Pter on growth or viability in vitro of breast, lung, liver, prostate, ovarian and colorectal tumor cell lines; format: cell-based; details: any of the tumor cell lines used (FIG. 15); 15 μM Pter×60 min every 24 h
Text: FIG. 15. In vivo effect of Pter on human breast, lung, liver, prostate, ovarian, and colorectal cancer growth. […] For the lower and maximum Pter dose used, in each case, only the endpoint of the treatment period is shown.
as §2, with “streptomycin.” for “streptomycin. Cells were plated, at a density of 20,000 cells/cm2, and cultured at 37° C. in a humidified atmosphere with 5% CO2.”

ACTH = assay: Plasma ACTH levels (ELISA) in tumor-bearing mice; format: in vivo
Text: Measurement of ACTH, Corticosterone, and NORA Levels.
Plasma levels of ACTH (Calbiotech, Inc., Spring Valley, Calif.), corticosterone (Kamiyama Biomedical Co., Seattle, Wash.), and NORA (IBL, Hamburg, Germany) were quantified by ELISA according to the instructions of the suppliers.

COc1cc(/C=C/c2ccc(O)cc2)cc(OC)c1 [Pter, trans-3,5-dimethoxy-4′-hydroxystilbene]
cell growth or viability in vitro (ASPC-1 cells): did not affect | Tumor vol. (MeWo melanoma; MeWo-RFP, 35 days after inoculation, Pter 30 mg/kg i.v. every 48 h and/or CRC infusion 0.3 μg/h): 167 ± 53* mm^3 | inhibition of tumor growth (MeWo melanoma; Mewo, day 42, 30 mg Pter/kg i.v. every 48 h, vs controls): ~65% | cell growth or viability in vitro (BxPC-3 cells): did not affect | cell growth or viability in vitro [1]: did not affect | ACTH (ACTH; A549-bearing mice, day 35, 6 h circadian time): 79 ± 19 pg/mL plasma | ACTH (ACTH; AsPC-1-bearing mice, day 28, 6 h circadian time): 112 ± 31 pg/mL plasma | ACTH (ACTH; BxPC-3-bearing mice, day 35, 6 h circadian time): 68 ± 11 pg/mL plasma | ACTH (ACTH; Caco-2-bearing mice, day 28, 6 h circadian time): 35 ± 15 pg/mL plasma | ACTH (ACTH; HT-29-bearing mice, day 21, 6 h circadian time): 44 ± 16 pg/mL plasma | ACTH (ACTH; HepG2-bearing mice, day 35, 6 h circadian time): 116 ± 25 pg/mL plasma | ACTH (ACTH; LNCaP-bearing mice, day 49, 6 h circadian time): 49 ± 15 pg/mL plasma | ACTH (ACTH; MCF-7-bearing mice, day 28, 6 h circadian time): 44 ± 9 pg/mL plasma | ACTH (ACTH; MDA-MB-231-bearing mice, day 35, 6 h circadian time): 65 ± 17 pg/mL plasma | ACTH (ACTH; PC-3-bearing mice, day 21, 6 h circadian time): 102 ± 30 pg/mL plasma | ACTH (ACTH; SK-OV-3-bearing mice, day 49, 6 h circadian time): 63 ± 19 pg/mL plasma | ACTH levels in plasma (ACTH; melanoma-bearing mice, pterostilbene treatment (FIG. 2B)): decreased
